In brackets after ≈: the same amount, converted by molar mass. Structures can show the parent of a compound that is named as a salt.
How the values were obtained:
[1] = molecular target: T1, thromboxane synthetase from rabbit platelet microsomes (Oryctolagus cuniculus, UniProt G1TAZ9); test: inhibition of thromboxane synthetase (conversion of prostaglandin H2 into thromboxane B2); assay type: biochemical
T1 construct: thromboxane synthetase from rabbit platelet microsomes; from tissue; host or cells: rabbit platelet microsomes
T1 sequence (G1TAZ9 1-530): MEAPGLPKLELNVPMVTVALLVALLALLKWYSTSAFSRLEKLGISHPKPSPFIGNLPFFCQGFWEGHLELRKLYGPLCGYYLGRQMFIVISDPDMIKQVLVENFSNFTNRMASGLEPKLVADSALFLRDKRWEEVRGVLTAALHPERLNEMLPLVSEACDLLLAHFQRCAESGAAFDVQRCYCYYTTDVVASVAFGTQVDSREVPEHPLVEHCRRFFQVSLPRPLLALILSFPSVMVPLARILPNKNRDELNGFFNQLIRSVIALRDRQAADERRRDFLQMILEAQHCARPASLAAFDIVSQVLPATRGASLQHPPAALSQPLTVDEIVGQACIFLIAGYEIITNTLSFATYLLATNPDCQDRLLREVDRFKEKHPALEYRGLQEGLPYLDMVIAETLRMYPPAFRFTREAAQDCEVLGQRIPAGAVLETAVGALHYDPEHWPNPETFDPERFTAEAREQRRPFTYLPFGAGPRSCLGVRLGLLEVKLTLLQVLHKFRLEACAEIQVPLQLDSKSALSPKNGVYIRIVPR

[2] = test system: arachidonic acid-induced blood platelet aggregation in platelet-rich plasma of rats; test: inhibition of arachidonic acid-induced blood platelet aggregation in platelet-rich plasma; assay type: cell-based; settings: Rattus norvegicus, read-out: concentration producing a 50% inhibition of arachidonic acid-induced blood platelet aggregation, in comparison with controls
[3] = test system: arachidonic acid-induced sudden deaths of rabbits; test: inhibitory effect on arachidonic acid-induced sudden deaths; assay type: in vivo; settings: oral administration, 100 mg/kg animal body weight
acute toxicity test = settings: mouse, in vivo; ICR-stain male mice (7 weeks old), intravenous administration
thromboxane synthetase [4] = settings: reported in Prostaglandins, 13(4), 611(1977); cited from earlier work
thromboxane synthetase [5] = test: inhibitory action for thromboxane synthetase (prior art); assay type: biochemical; settings: prior-art compound, comparison in words
From the text: However, since their inhibitory action for thromboxane synthetase is weak, these compounds are hardly applicable as practically effective medicines.
On the other hand, N-(6-methoxycarbonylhexyl)imidazole has already been synthesized by P. Matthias et al, and publicly known [Monatsch Chem., 108(5), 1059(1977)].

| SMILES | IC50 [1] [µM] | IC50 [2] [µg/mL] | further results |
| --- | --- | --- | --- |
| CCCCC(CCCn1ccnc1)C(=O)OCC (racemic) [1-[(4RS)-4-ethoxycarbonyloctyl]imidazole] | 0.09 |  |  |
| CC(CCCCCn1ccnc1)CC(=O)O.Cl (racemic) [1-[(6RS)-7-carboxy-6-methylheptyl]imidazole hydrochloride] | 0.13 | 0.53 |  |
| CC(CCCCCCn1ccnc1)C(=O)O.Cl (racemic) [1-[(7RS)-7-carboxyoctyl]imidazole hydrochloride] |  | 0.17 | inhibitory effect on arachidonic acid-induced sudden deaths [3]: inhibitory effect; LD50 (acute toxicity test): 540 mg/kg |
| CCOC(=O)C(C)CCCCCCn1ccnc1 (racemic) [1-[(7RS)-7-ethoxycarbonyloctyl]imidazole] | 1 | 0.052 (≈ 0.206 µM) |  |
| CC(C)(CCCCCCC(=O)O)n1ccnc1.Cl [1-(7-carboxy-1,1-dimethylheptyl)imidazole hydrochloride] | 0.071 | 0.18 |  |
| Cl.O=C(O)CCCCC#CCn1ccnc1 [1-(7-carboxy-2-heptynyl)imidazole hydrochloride] |  | 0.21 | inhibitory effect on arachidonic acid-induced sudden deaths [3]: inhibitory effect |
| Cl.O=C(O)C#CCCCCCn1ccnc1 [1-(7-carboxy-6-heptynyl)imidazole hydrochloride] |  | 4 |  |
| CC(C)(CCCCCCn1ccnc1)C(=O)O.Cl [1-(7-carboxy-7-methyloctyl)imidazole hydrochloride] |  | 0.091 | inhibitory effect on arachidonic acid-induced sudden deaths [3]: inhibitory effect; LD50 (acute toxicity test): 330 mg/kg |
| CCOC(=O)C(C)(C)CCCCCCn1ccnc1 [1-(7-ethoxycarbonyl-7-methyloctyl)imidazole] | 0.03 | 0.44 (≈ 1.65 µM) |  |
| Cn1ccnc1 [1-methylimidazole] |  |  | inhibitory action for thromboxane synthetase (thromboxane synthetase [4]): weak |
| O=C(O)CCCC/C=C\Cn1ccnc1 [(Z)-1-(7-carboxy-2-heptenyl)imidazole hydrochloride] | 0.016 |  |  |
| O=C(O)/C=C\CCCCCn1ccnc1 [(Z)-1-(7-carboxy-6-heptenyl)imidazole hydrochloride] | 0.2 |  |  |
| COC(=O)CCCCCCn1ccnc1 [N-(6-methoxycarbonylhexyl)imidazole] |  |  | inhibitory effect on thromboxane synthetase compared with imidazole or 1-methylimidazole (thromboxane synthetase [5]): stronger inhibitory effect |
| c1c[nH]cn1 [imidazole] |  |  | inhibitory action for thromboxane synthetase (thromboxane synthetase [4]): weak |

From patent US4256757A, “1-Substituted imidazoles for inhibition of thromboxane synthetase” (Ono Pharmaceutical Co., Ltd., priority 1978, dated 1981)
